Experiment [1] has as its system oxazolone-induced skin inflammation of Balb/C mouse ears. The experiment in a line: mouse skin inflammatory model induced by oxazolone (ear thickness). In kind it is in vivo. The note with it: 20 ul of 0.1% compound topical on ear, 36 hours after oxazolone. In a few lines:
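Oxazolone was used to induce skin inflammation in the ears of 8-week-old Balb/C mice. Ear thickness was measured by caliper before induction, again at 36 h to capture inflammatory swelling, and averaged per group (n=4).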

A further experiment addresses DDR1 tyrosine kinase (Homo sapiens (Human), UniProt Q08345). Briefly: in vitro DDR1 tyrosine kinase inhibition (GST-fused kinase domain). In kind it is biochemical. The note with it: 1 uM compound; read-out: % inhibition against DDR1.
Experiment [2] has as its system NO synthesis in J744A.1 macrophage. The experiment in a line: inhibition of nitric oxide (NO) synthesis in LPS-activated macrophages (Griess reagent). It counts as cell-based. The note with it: 24 h, read-out: Inhibition (%) of NO synthesis. Background: The Griess reaction detects nitrite, a stable product of nitric oxide.
Experiment [3] relates to TNF-α synthesis in J744A.1 macrophages. Briefly: inhibition of TNF-α synthesis in LPS-activated macrophages (ELISA). In kind it is cell-based. The conditions noted are these: Macrophage, 6 h, read-out: Inhibition (%) of TNF-α synthesis. On the technique in general: ELISA stands for enzyme-linked immunosorbent assay.
In the next experiment the target is Fgr tyrosine kinase (Homo sapiens (Human), UniProt P09769). The experiment in a line: in vitro Fgr tyrosine kinase inhibition. It counts as biochemical. The note with it: 1 uM compound; read-out: % inhibition against Fgr.
Chain of Fgr tyrosine kinase (P09769 whole entry, the tested form may be a part): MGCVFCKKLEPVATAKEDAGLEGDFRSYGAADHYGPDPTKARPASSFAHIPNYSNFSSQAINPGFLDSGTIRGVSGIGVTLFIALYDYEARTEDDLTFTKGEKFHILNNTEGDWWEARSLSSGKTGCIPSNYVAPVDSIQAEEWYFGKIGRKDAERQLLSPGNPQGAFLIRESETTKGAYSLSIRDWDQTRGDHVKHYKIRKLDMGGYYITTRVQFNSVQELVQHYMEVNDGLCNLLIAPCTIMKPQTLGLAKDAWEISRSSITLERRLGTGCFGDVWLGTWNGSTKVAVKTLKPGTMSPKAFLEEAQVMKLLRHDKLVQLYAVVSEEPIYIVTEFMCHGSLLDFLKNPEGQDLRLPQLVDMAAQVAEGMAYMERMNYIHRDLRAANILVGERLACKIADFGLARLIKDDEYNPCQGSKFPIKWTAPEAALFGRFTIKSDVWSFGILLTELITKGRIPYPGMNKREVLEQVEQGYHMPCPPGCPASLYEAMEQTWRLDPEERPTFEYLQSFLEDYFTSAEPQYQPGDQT
The next experiment has as its target DDR2 tyrosine kinase (Homo sapiens (Human), UniProt Q16832). Briefly: in vitro DDR2 tyrosine kinase inhibition (GST-fused kinase domain). It counts as biochemical. The conditions noted are these: 1 uM compound; read-out: % inhibition against DDR2.
In experiment [4] the test system is α-smooth muscle actin protein expression in skin fibroblast cells. Briefly: inhibition of α-smooth muscle actin expression in fibroblast activated by type I collagen and TGF-β1 (western blotting). In kind it is cell-based, Balb/C mouse. The note with it: Mus musculus, 0.5 uM compound, 10 ng/ml TGF-β1, 48 hours, type I collagen, read-out: Inhibition (%) of α-smooth muscle actin increase. The procedure, abridged: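 α-Smooth muscle actin protein was detected by western blotting with chemiluminescence on X-ray film. Levels were quantified by densitometry of the band.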
(In western blotting, separated proteins are transferred to a membrane and probed.)

The target in a further experiment is c-Src tyrosine kinase (Homo sapiens (Human), UniProt P12931). Briefly: in vitro c-Src tyrosine kinase inhibition (32P-ATP, poly(D4Y)n substrate). It counts as biochemical. The conditions noted are these: 1 uM compound; read-out: % inhibition against c-Src.
Chain of c-Src tyrosine kinase (P12931 whole entry, looked up): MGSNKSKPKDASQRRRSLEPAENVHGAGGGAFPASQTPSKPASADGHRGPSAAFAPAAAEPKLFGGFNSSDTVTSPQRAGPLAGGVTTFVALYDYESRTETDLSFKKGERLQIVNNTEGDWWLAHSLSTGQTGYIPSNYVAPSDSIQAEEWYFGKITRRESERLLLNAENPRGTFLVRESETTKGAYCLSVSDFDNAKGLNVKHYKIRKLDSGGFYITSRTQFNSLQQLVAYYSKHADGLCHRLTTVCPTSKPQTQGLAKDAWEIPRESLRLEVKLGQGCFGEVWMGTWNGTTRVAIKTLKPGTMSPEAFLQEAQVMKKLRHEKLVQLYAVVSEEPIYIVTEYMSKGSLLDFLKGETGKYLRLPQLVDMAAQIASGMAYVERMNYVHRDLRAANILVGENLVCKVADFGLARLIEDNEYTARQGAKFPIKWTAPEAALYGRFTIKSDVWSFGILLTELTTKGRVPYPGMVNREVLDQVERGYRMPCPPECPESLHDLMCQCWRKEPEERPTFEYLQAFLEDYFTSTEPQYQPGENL
Another experiment addresses Lyn tyrosine kinase (Homo sapiens (Human), UniProt P07948). The experiment in a line: in vitro Lyn tyrosine kinase inhibition. It counts as biochemical. The note with it: 1 uM compound; read-out: % inhibition against Lyn.
A further experiment has as its system mouse skin fibroblast. The experiment in a line: inhibition of migration of activated fibroblast (scratch wound). In kind it is cell-based. The conditions noted are these: 0.5 uM compound, 10 ng/ml TGF-β1, 24 hours, read-out: Inhibition (%) of migration of activated fibroblast. In a few lines:
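Scratch wound was made on a fibroblast monolayer, then cells were kept in DMEM with 10 ng/ml TGF-β1 at 37° C for 24 hours. After formalin fixation and crystal violet staining, cells that had moved into the wound were counted at 100× in five random fields and averaged.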

The target of a further experiment is Hck tyrosine kinase (Homo sapiens (Human), UniProt P08631). The experiment in a line: in vitro Hck tyrosine kinase inhibition. The conditions noted are these: 1 uM compound; read-out: % inhibition against Hck. In kind it is biochemical.
Chain of Hck tyrosine kinase (P08631 whole entry): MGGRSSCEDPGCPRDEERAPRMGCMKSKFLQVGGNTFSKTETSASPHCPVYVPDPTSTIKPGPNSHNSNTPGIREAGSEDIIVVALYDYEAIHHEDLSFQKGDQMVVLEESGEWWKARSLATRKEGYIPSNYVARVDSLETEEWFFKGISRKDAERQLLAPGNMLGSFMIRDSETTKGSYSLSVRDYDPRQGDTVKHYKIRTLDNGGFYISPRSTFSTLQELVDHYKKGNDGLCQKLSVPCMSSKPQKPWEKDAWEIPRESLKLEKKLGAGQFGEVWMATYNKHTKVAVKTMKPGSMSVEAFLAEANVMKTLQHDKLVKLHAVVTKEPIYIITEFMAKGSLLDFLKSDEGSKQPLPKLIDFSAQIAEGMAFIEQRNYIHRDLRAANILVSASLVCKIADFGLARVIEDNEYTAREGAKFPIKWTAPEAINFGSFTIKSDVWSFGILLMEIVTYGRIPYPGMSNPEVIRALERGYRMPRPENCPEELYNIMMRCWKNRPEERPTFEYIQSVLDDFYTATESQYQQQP

Chain of DDR2 tyrosine kinase (Q16832 563-849): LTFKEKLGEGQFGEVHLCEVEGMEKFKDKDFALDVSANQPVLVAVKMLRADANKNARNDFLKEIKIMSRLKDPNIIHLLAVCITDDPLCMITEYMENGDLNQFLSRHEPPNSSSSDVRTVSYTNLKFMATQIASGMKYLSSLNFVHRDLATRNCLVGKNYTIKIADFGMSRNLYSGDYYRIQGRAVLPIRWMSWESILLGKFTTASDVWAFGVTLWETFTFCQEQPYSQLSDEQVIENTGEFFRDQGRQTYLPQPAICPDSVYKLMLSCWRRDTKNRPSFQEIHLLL
Chain of DDR1 tyrosine kinase (Q08345 610-905): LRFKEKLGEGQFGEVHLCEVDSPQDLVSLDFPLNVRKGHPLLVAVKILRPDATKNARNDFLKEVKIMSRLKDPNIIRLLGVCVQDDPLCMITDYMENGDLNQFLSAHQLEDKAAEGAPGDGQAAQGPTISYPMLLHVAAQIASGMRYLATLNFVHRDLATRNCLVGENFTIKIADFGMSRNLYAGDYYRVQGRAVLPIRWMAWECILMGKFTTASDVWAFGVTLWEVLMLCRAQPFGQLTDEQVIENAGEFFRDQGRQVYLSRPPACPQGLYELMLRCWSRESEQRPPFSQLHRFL
Chain of Lyn tyrosine kinase (P07948 whole entry): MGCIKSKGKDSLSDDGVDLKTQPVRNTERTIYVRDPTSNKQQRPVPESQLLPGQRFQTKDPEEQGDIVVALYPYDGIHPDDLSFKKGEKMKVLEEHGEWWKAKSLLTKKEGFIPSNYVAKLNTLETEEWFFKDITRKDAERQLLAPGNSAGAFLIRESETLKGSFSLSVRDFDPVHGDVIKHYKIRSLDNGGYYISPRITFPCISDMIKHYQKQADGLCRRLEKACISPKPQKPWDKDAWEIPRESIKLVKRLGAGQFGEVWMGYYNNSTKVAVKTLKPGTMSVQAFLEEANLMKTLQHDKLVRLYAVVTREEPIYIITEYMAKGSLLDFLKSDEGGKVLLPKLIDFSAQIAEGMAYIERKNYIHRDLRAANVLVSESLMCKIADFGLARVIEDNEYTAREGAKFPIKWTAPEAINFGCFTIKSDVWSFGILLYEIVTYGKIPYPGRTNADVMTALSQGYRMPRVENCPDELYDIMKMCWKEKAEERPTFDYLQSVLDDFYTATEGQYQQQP

With `Oc1cccc(Nc2ncnc3cc(-c4ccc(CN5CCCCC5)o4)sc23)c1` [LCB 03-0088, 3-(6-(5-(piperidin-1-ylmethyl)furan-2-yl)thieno[3,2-d]pyrimidin-4-ylamino)phenol], in [1], the “Inhibition (%) of increase of ear thickness” value is recorded as 51%. For the same molecule, the inhibition at 1 µM on DDR1 tyrosine kinase was above 90%; on Fgr tyrosine kinase, above 70%; on DDR2 tyrosine kinase it was above 90%; at c-Src tyrosine kinase, above 70%; at Lyn tyrosine kinase, above 70%; at Hck tyrosine kinase it was above 70%. Moreover, the inhibition at 10 µM in experiment [2] stood at 97%; in experiment [3] it was 73%. Besides, the inhibition at 0.5 µM was determined as 52% in [4] and 27% with mouse skin fibroblast.

Regarding `Oc1cccc(Nc2ncnc3cc(-c4ccc(CN5CCOCC5)o4)sc23)c1` [LCB 03-0089, 3-(6-(5-(morpholinomethyl)furan-2-yl)thieno[3,2-d]pyrimidin-4-ylamino)phenol], the “Inhibition (%) of increase of ear thickness” value in experiment [1] is listed as 59%. Further, the inhibition at 1 µM at DDR1 tyrosine kinase, at Fgr tyrosine kinase, on DDR2 tyrosine kinase, at c-Src tyrosine kinase, on Lyn tyrosine kinase and at Hck tyrosine kinase was above 70% throughout. In addition, the results for the inhibition at 10 µM in experiment [2] and in [3] were 86% and 71%, respectively. In addition, the inhibition at 0.5 µM in [4] was 25%; with mouse skin fibroblast it was 19%.

Consider `Oc1cccc(Nc2ncnc3cc(-c4ccc(CN5CCNCC5)o4)sc23)c1` [LCB 03-0090, 3-(6-(5-(piperazin-1-ylmethyl)furan-2-yl)thieno[3,2-d]pyrimidin-4-ylamino)phenol], for which the “Inhibition (%) of increase of ear thickness” value in [1] was 56%. Moreover, the inhibition at 1 µM on DDR1 tyrosine kinase, on Fgr tyrosine kinase, on DDR2 tyrosine kinase, on c-Src tyrosine kinase, on Lyn tyrosine kinase and on Hck tyrosine kinase was above 70% in each case. Moreover, the inhibition at 10 µM in experiment [2] turned out to be 90%; in experiment [3], 63%. Besides, the inhibition at 0.5 µM was found to be 44% in experiment [4] and 26% in the experiment with mouse skin fibroblast.

In the case of `CCNCc1ccc(-c2cc3ncnc(Nc4cccc(O)c4)c3s2)o1` [LCB 03-0091, 3-(6-(5-((ethylamino)methyl)furan-2-yl)thieno[3,2-d]pyrimidin-4-ylamino)phenol], in [1], the “Inhibition (%) of increase of ear thickness” value worked out at 49%. Further, the inhibition at 1 µM at DDR1 tyrosine kinase, at Fgr tyrosine kinase, on DDR2 tyrosine kinase, at c-Src tyrosine kinase, on Lyn tyrosine kinase and at Hck tyrosine kinase was above 70% in each case. Moreover, the results for the inhibition at 10 µM in experiment [2] and in experiment [3] were 92% and 68%, respectively. Moreover, the inhibition at 0.5 µM (in experiment [4]; in the experiment on mouse skin fibroblast) was 39% in each case.

`CN1CCN(Cc2ccc(-c3cc4ncnc(Nc5cccc(O)c5)c4s3)s2)CC1` [LCB 03-0092, 3-(6-(5-((4-methylpiperazin-1-yl)methyl)thiophene-2-yl)thieno[3,2-d]pyrimidin-4-ylamino)phenol]: in experiment [1], the “Inhibition (%) of increase of ear thickness” value is recorded as 47%. Moreover, the inhibition at 1 µM on DDR1 tyrosine kinase is above 80%; at Fgr tyrosine kinase, above 50%; on DDR2 tyrosine kinase, above 80%; on c-Src tyrosine kinase, above 60%; on Lyn tyrosine kinase, above 60%; on Hck tyrosine kinase, above 60%. Also, the inhibition at 10 µM is 90% in [2] and 64% in [3]. Moreover, the inhibition at 0.5 µM in [4] is 37%; in the experiment with mouse skin fibroblast, 28%.

With `Oc1cccc(Nc2ncnc3cc(-c4ccc(CN5CCCCC5)s4)sc23)c1` [LCB 03-0093, 3-(6-(5-(piperidin-1-ylmethyl)thiophene-2-yl)thieno[3,2-d]pyrimidin-4-ylamino)phenol], the “Inhibition (%) of increase of ear thickness” value in experiment [1] stood at 51%. The inhibition at 1 µM at DDR1 tyrosine kinase was above 80%; on Fgr tyrosine kinase, above 60%; on DDR2 tyrosine kinase, above 80%; at c-Src tyrosine kinase it was above 60%; on Lyn tyrosine kinase, above 60%; on Hck tyrosine kinase, above 60%. Besides, the inhibition at 10 µM was determined as 79% in experiment [2] and 53% in [3]. Further, the inhibition at 0.5 µM in experiment [4] is 43%; in the experiment on mouse skin fibroblast, 31%.

As to `Oc1cccc(Nc2ncnc3cc(-c4ccc(CN5CCNCC5)s4)sc23)c1` [LCB 03-0094, 3-(6-(5-(piperazin-1-ylmethyl)thiophene-2-yl)thieno[3,2-d]pyrimidin-4-ylamino)phenol], in [1], the “Inhibition (%) of increase of ear thickness” value stood at 49%. Also, the inhibition at 1 µM at DDR1 tyrosine kinase is above 80%; at Fgr tyrosine kinase, above 60%; on DDR2 tyrosine kinase, above 80%; at c-Src tyrosine kinase, above 60%; at Lyn tyrosine kinase it was above 60%; at Hck tyrosine kinase, above 60%. The results for the inhibition at 10 µM in experiment [2] and in experiment [3] were 77% and 56%, respectively. Further, the inhibition at 0.5 µM in experiment [4] was found to be 41%; in the experiment on mouse skin fibroblast it was 29%.

Consider `Oc1cccc(Nc2ccnc3cc(-c4cccc(CN5CCCC5)c4)sc23)c1` [LCB 03-0107, 3-(2-(3-(pyrrolidin-1-ylmethyl)phenyl)thieno[3,2-b]pyridin-7-ylamino)phenol], for which, in [1], the “Inhibition (%) of increase of ear thickness” value came out at 59%. Besides, the inhibition at 1 µM at DDR1 tyrosine kinase is above 80%; at Fgr tyrosine kinase, above 70%; at DDR2 tyrosine kinase it was above 80%; at c-Src tyrosine kinase, above 70%; on Lyn tyrosine kinase, above 70%; at Hck tyrosine kinase, above 70%. In addition, the inhibition at 10 µM in [2] is 81%; in [3] it was 45%. Also, the inhibition at 0.5 µM in [4] amounted to 71%; in the experiment on mouse skin fibroblast, 58%.

In the case of `CN1CCN(Cc2cccc(-c3cc4nccc(Nc5cccc(O)c5)c4s3)c2)CC1` [LCB 03-0108, 3-(2-(3-((4-methylpiperazin-1-yl)methyl)phenyl)thieno[3,2-b]pyridin-7-ylamino)phenol], in [1], the “Inhibition (%) of increase of ear thickness” value is 63%. Also, the inhibition at 1 µM on DDR1 tyrosine kinase, at Fgr tyrosine kinase, at DDR2 tyrosine kinase, on c-Src tyrosine kinase, on Lyn tyrosine kinase and on Hck tyrosine kinase was above 80% in each case. For the same molecule, the inhibition at 10 µM in experiment [2] was 92%; in experiment [3], 53%. The inhibition at 0.5 µM in experiment [4] amounted to 75%; in the experiment on mouse skin fibroblast, 56%.

With `Oc1cccc(Nc2ccnc3cc(-c4cccc(CN5CCCCC5)c4)sc23)c1` [LCB 03-0109, 3-(2-(3-(piperidin-1-ylmethyl)phenyl)thieno[3,2-b]pyridin-7-ylamino)phenol], the “Inhibition (%) of increase of ear thickness” value in experiment [1] is on record as 52%. Further, the inhibition at 1 µM was above 80% at DDR1 tyrosine kinase; above 70% at Fgr tyrosine kinase; above 80% at DDR2 tyrosine kinase; above 70% at c-Src tyrosine kinase; above 70% on Lyn tyrosine kinase; above 70% on Hck tyrosine kinase. The inhibition at 10 µM in experiment [2] worked out at 90%; in experiment [3], 56%. In addition, the results for the inhibition at 0.5 µM (in experiment [4]; with mouse skin fibroblast) were 67% and 48%, respectively.

Take `Oc1cccc(Nc2ccnc3cc(-c4cccc(CN5CCNCC5)c4)sc23)c1` [LCB 03-0111, 3-(2-(3-(piperazin-1-ylmethyl)phenyl)thieno[3,2-b]pyridin-7-ylamino)phenol]: the “Inhibition (%) of increase of ear thickness” value in experiment [1] is listed as 71%. Also, the inhibition at 1 µM was above 90% on DDR1 tyrosine kinase; above 80% at Fgr tyrosine kinase; above 90% at DDR2 tyrosine kinase; above 80% on c-Src tyrosine kinase; above 80% at Lyn tyrosine kinase; above 80% on Hck tyrosine kinase. In addition, the inhibition at 10 µM in experiment [2] was determined as 92%; in [3], 57%. Moreover, the inhibition at 0.5 µM in experiment [4] worked out at 79%; with mouse skin fibroblast it was 58%.

On to `CCNCc1cccc(-c2cc3nccc(Nc4cccc(O)c4)c3s2)c1` [LCB 03-0112, 3-(2-(3-((ethylamino)methyl)phenyl)thieno[3,2-b]pyridin-7-ylamino)phenol], for which the “Inhibition (%) of increase of ear thickness” value in experiment [1] is reported as 68%. The inhibition at 1 µM at DDR1 tyrosine kinase, on Fgr tyrosine kinase, on DDR2 tyrosine kinase, at c-Src tyrosine kinase, at Lyn tyrosine kinase and at Hck tyrosine kinase was above 80% throughout. In addition, the inhibition at 10 µM stood at 81% in experiment [2] and 46% in [3]. In addition, the inhibition at 0.5 µM is 71% in experiment [4] and 38% in the experiment on mouse skin fibroblast.

Source of the values: patent US9062066B2, “Anti-inflammatory compound having inhibitory activity against multiple tyrosine kinases and pharmaceutical composition containing same” (KOREA INSTITUTE OF SCIENCE AND TECHNOLOGY, priority 2010, dated 2015).
